# Patent US8916681B2, “Compound, use and method” (Medical Research Council, priority 2007, dated 2014)
# Entries after “also recorded” stand apart in the source; their conditions may differ. Non-standard residues stand in square brackets, D forms with d. Residues, ends and D or L forms follow the SMILES beside them.
# How the values were obtained:
# GPR54 = GPR54 (Homo sapiens, UniProt Q969F8); assay: Inositol phosphate (IP) stimulation assay in CHO/gpr-54 cells; assay type: cell-based; set-up: G. Vassart, Univ; Brussels; conditions: CHO cells stably-expressing human gpr-54
# serum LH = assay: Serum LH in orchidectomized (castrated) male rats, icv injections; assay type: in vivo, rat; conditions: 1 nmol at 0, 60 and 120 min; significant at 240 min
# Protocol: In addition, repeated icy injection of the peptide 234 was also conducted in orchidectomized (ORX) rats. The animals were subjected to bilateral ORX via the scrotal route, and after 1-wk after surgery were subjected to cannula implantation as described above. The test involved three intracerebral injections of the antagonist (1 nmol; at 0-, 60- and 120-min of the procedure) and blood sampling by jugular venipuncture in basal conditions (0-min) and 15-min after each icy injection. Additional blood samples were obtained at 180- and 240-min after central administration of peptide 234. For each time-point, 10-12 samples were taken per group.
# Serum LH levels were measured in a volume of 50 μl using a double-antibody method and radioimmunoassay kits supplied by the NIH (Dr. AF Parlow, NIDDK). […] For each hormone, all samples were measured in the same assay. […]
# Hormonal determinations were conducted in duplicate, with a minimal total number of 10 samples per group. When appropriate, in addition to individual time-point measurements, integrated LH secretory responses were calculated as the area under the curve (AUC), following the trapezoidal rule. […] Results were analyzed for statistically significant differences using Student t-test or ANOVA followed by Student-Newman-Keuls multiple range test (SigmaStat 2.0). […]
# [1] = tested on: plasma LH, GH, prolactin and cortisol; assay: Central (third ventricle) infusion in OVX ewes: plasma LH, GH, prolactin, cortisol; assay type: in vivo, sheep
# Excerpt: Adult Corriedale ewes were housed under natural lighting and were bilaterally ovariectomized (OVX) at least 1 month before any experimental manipulations. Permanent indwelling third cerebral ventricular (3V) cannulae were implanted in a subsequent surgical procedure as previously described (Barker-Gibb et al., 1995, J. Endocrinol., 147:565-79). Approximately two weeks after 3V surgery, one external jugular vein was cannulated for blood sampling and animals housed in single pens; cannulae were kept patent with heparinized saline.
# Ewes were assigned to two treatment groups (n=4 per group); kisspeptin antagonist (diluted in artificial cerebrospinal fluid, aCSF; 150 mM NaCl, 1.2 mM CaCl2, 1 mM MgCl2, 2.8 mM KCl) or control (aCSF only). The following day, infusion lines were connected to 3V cannulae and blood sampling commenced at 07.00 h. Samples were collected every 10 min. After 3 h of sampling, kisspeptin antagonist (or control) was infused into the 3V at a dose of 40 μg/h for 1 h, with an initial loading dose of 10 μg. Both kisspeptin antagonist and vehicle were infused at 200 μl/h for 1 h using Graseby® MS16A infusion pumps (Smiths Medical Australasia Pty. Ltd., Gold Coast, Qld, Australia). After infusion, 3V lines remained in place and blood sampling continued for a further 2 h (total of 6 h). Plasma was harvested immediately from samples, and frozen at −20 C until assayed.
# Plasma LH concentrations were measured in duplicate, using the method of Lee et al. (1976, J. Reprod. Fertil., 46:1-6) with NIH-oLH-518 as standard. Assay results were calculated using the program of Burger et al. (1972, J. Lab. Clin. Med., 80:302-12). Assay sensitivity was 0.08 ng/ml and the intra-assay coefficient of variation was less than 10% over the range of 0.3-12.8 ng/ml. A pulse analysis of the LH data was performed based on the method described for GnRH (Clarke, 1993, Endocrinology, 133:1624-32).
# All experimental procedures were conducted under a protocol approved by the Monash School of Biomedical Sciences Animal Ethics Committee. Adult Corriedale ewes were housed under natural lighting and were bilaterally ovariectomized (OVX) at least 1 month before any experimental manipulations. Permanent indwelling third cerebral ventricular (3V) cannulae were implanted in a subsequent surgical procedure as previously described (49). Approximately 2 weeks after 3V surgery, one external jugular vein was cannulated for blood sampling and animals housed in single pens; cannulae were kept patent with heparinized saline. Ewes were assigned to two treatment groups (4/group); peptide 234 (diluted in artificial cerebrospinal fluid, aCSF; 150 mM NaCl, 1.2 mM CaCl2, 1 mM MgCl2, 2.8 mM KCl) or control (aCSF only). The following day, infusion lines were connected to 3V cannulae and blood sampling commenced at 07.00 h. Samples were collected every 10 min. After 3 h of sampling, peptide 234 (or control) was infused into the 3V at a dose of 40 μg/h for 1 h, with an initial loading dose of 10 μg. Both peptide 234 and vehicle were infused at 200 μl/h using Graseby® MS16A infusion pumps (Smith Medical Australasia Pty. Ltd.). After infusion, 3V lines remained in place and blood sampling continued for a further 2 h (total of 6 h). Plasma was harvested immediately from samples, and frozen at −20 C until assayed.
# Plasma LH concentrations were measured in duplicate, with NIH-oLH-518 as standard (49). Assay sensitivity was 0.1 ng/ml and the intra-assay coefficient of variation was less than 10% over the range of 0.3-12.8 ng/ml. Pulse analysis of the plasma LH data was as previously described (36). Plasma samples were assayed for GH in duplicate using the standard NIDDK-oGH-I-4 and NIDDK-anti-oGH-2 antiserum (50). The assay sensitivity was 1 ng/ml, the intra-assay CV was less than 10% between 4 and 51 ng/ml and the inter-assay CV was 20%.
# Plasma prolactin concentrations were measured in duplicate using Sigma, Lot 114F-0558, NOL-7135 as standard (50). […]
# [2] = before, during or after infusion
# Sequence of GPR54 (Q969F8 whole entry): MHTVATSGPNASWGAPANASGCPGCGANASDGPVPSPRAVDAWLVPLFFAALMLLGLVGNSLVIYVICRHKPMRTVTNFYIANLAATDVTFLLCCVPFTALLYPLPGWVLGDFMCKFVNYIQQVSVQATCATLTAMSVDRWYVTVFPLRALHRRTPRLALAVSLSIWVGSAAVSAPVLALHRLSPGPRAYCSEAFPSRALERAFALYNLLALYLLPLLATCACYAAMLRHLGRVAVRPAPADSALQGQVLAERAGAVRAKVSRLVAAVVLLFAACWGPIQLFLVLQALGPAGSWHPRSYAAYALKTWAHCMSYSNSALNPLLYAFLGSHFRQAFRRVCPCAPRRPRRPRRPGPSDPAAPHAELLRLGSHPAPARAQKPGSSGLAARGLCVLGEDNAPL
compound,measurement,setting,value
CC(=O)N[C@H](C)C(=O)N[C@@H](CC(N)=O)C(=O)N[C@@H](Cc1c[nH]c2ccccc12)C(=O)N[C@@H](CC(N)=O)C(=O)NCC(=O)N[C@@H](Cc1ccccc1)C(=O)NCC(=O)N[C@H](Cc1c[nH]c2ccccc12)C(=O)N[C@@H](CCCNC(=N)N)C(=O)N[C@@H](Cc1ccccc1)C(N)=O [Peptide 234] (Ac-[dA]NWNGFG[dW]RF-NH2),stimulation of IP by the peptide alone,GPR54,little or no stimulation; also recorded: no intrinsic IP stimulation
same,serum LH levels in castrated males,serum LH,inhibited; also recorded: tended to reduce; also recorded: blocked the increase in LH
same,Mean GH,[1]; After Infusion,9.11 ± 1.44 ng/mL
same,Mean LH,[1]; After Infusion,significant reduction; also recorded: reduced
same,LH pulse amplitude,"[1]; After Infusion (240-360 min), listed as Peptide-234",0.68 ± 0.05 ng/mL
same,LH pulse amplitude,"[1]; After Infusion (240-360 min), listed as peptide 234",significant reduction; also recorded: diminished amplitude; also recorded: markedly reduced
same,Mean GH,[1]; Before Infusion,5.11 ± 1.48 ng/mL
same,Mean LH,[1]; Before Infusion,2.73 ± 0.43 ng/mL
same,LH pulse amplitude,[1]; Before Infusion (0-180 min),1.63 ± 0.28 ng/mL
same,Mean LH,[1]; During Infusion,2.89 ± 0.55 ng/mL
same,LH pulse amplitude,"[1]; During Infusion (180-240 min), 40 μg/h, loading dose 10 μg",1.82 ± 0.52 ng/mL
same,Mean GH,"[1]; During Infusion, listed as Peptide-234",14.07 ± 2.78 ng/mL
same,Mean GH,"[1]; During Infusion, listed as peptide 234",significant increase; also recorded: increased; also recorded: appeared to increase
same,number of LH secretory pulses,[1]; after ventricular administration,markedly reduced
same,cortisol concentrations,[1]; [2],no effect
same,prolactin concentrations,[1]; [2],no effect
